The text below walks through data of US9738677B2, “Amphotericin B derivative with reduced toxicity” (priority 2014, dated 2017).

“Also recorded” adds a separate entry of the source.

Assay [1] has as its system C. albicans. In words: Mouse model of disseminated candidiasis, kidney fungal burden. The class given is in vivo. The settings on record: neutropenic mice, single intraperitoneal 16 mg/kg 2 hours post infection, kidneys at 24 hours post infection. On the procedure: FIG. 7 is a bar graph depicting kidney fungal load (colony forming units, CFUs) in neutropenic mice inoculated intravenously with C. albicans, and then treated two hours later with a single intraperitoneal dose of vehicle or 16 mg/kg AmB or C2′epiAmB.
The antifungal efficacy of C2′epiAmB was tested in a mouse model of disseminated candidiasis. In this experiment neutropenic mice were infected with C. albicans via their tail veins, and then 2 hours post infection the mice were treated with a single intraperitoneal injection of 16 mg/kg AmB or C2′epiAmB. Then at 24 hours post infection the mice were sacrificed, and the fungal burden present in their kidneys was quantified.

Assay [2] can be described thus: ITC sterol binding, POPC LUVs containing 10% cholesterol. On the procedure:
(§1) Isothermal Titration calorimetry (ITC)
(§2) In an optimized isothermal titration calorimetry (ITC)-based assay, an aqueous solution of AmB was titrated with a suspension of large unilamellar vesicles (LUVs) comprised of only 1-palmitoyl-2-oleoyl-sn-glycero-3-phosphocholine (POPC), and the net exotherm was recorded. The titration was repeated using POPC LUVs containing 10% ergosterol. […] The titration was repeated using C2′epiAmB. […] The ITC assay was also conducted with cholesterol in place of ergosterol.
Experiments were performed using a NanoITC isothermal titration calorimeter (TA Instruments, Wilmington, Del.). Solutions of the compounds to be tested were prepared by diluting a 60.0 mM stock solution of the compound in DMSO to 600 μM with K buffer (5.0 mM HEPES/KHEPES, pH=7.4). The final DMSO concentration in the solution was 1% v/v. Large unilamellar vesicles comprised of only 1-palmitoyl-2-oleoyl-sn-glycero-3-phosphocholine (POPC LUVs) were prepared and phosphorus and ergosterol content was quantified as described below. The LUV solutions were diluted with buffer and DMSO to give a final phospholipid concentration of 12.0 mM in a 1% DMSO/K buffer solution. Immediately prior to use, all solutions were incubated at 37° C. for 30 minutes and degassed under vacuum at 37° C. for 10 minutes. The reference cell of the instrument (volume=0.190 mL) was filled with a solution of 1% v/v DMSO/K buffer.
Palmitoyl oleoyl phosphatidylcholine (POPC) was obtained as a 20 mg/mL solution in CHCl3 from Avanti Polar Lipids (Alabaster, Ala.) and was stored at −20° C. under an atmosphere of dry argon and used within 1 month. A 4 mg/mL solution of ergosterol in CHCl3 was prepared monthly and stored at 4° C. under an atmosphere of dry argon. […]
(§3) NanoAnalyze software (TA Instruments) was used for baseline determination and integration of the injection heats, and Microsoft Excel was used for subtraction of dilution heats and the calculation of overall heat evolved. […] By this method, the overall heat evolved during the experiment was calculated using the following formula: […]

A short description of assay [3]: ITC titration with sterol-free POPC LUVs. The format is binding. The settings on record: no sterol LUVs, 600 μM compound. On the procedure:
as §1, §2
Experiments were performed using a NanoITC isothermal titration calorimeter (TA Instruments, Wilmington, Del.). Solutions of the compounds to be tested were prepared by diluting a 60.0 mM stock solution of the compound in DMSO to 600 μM with K buffer (5.0 mM HEPES/KHEPES, pH=7.4). The final DMSO concentration in the solution was 1% v/v. Large unilamellar vesicles comprised of only 1-palmitoyl-2-oleoyl-sn-glycero-3-phosphocholine (POPC LUVs) were prepared and phosphorus and ergosterol content was quantified as described below. […]
as §3

As to `C[C@@H]1[C@H](O)[C@@H](C)/C=C/C=C/C=C/C=C/C=C/C=C/C=C/[C@H](O[C@@H]2O[C@H](C)[C@@H](O)[C@H](N)[C@H]2O)CC2O[C@](O)(C[C@@H](O)C[C@@H](O)[C@H](O)CC[C@@H](O)C[C@@H](O)CC(=O)O[C@H]1C)C[C@H](O)[C@H]2C(=O)O` [C2′epiAmB], the “Reduction of kidney fungal burden relative to AmB” value in assay [1] is recorded as 0.5 log units. For the same compound, the Total exotherm was -6.43 ± 2.80 µcal in assay [2] (10% cholesterol LUVs, 600 μM compound) and -6.70 ± 0.11 µcal in assay [3]. Further, the “Binding to cholesterol (in words)” value in assay [2] (within the limits of the binding assay) is “but not cholesterol; also recorded: not found to bind to cholesterol; also recorded: do not bind cholesterol”.
